#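 Following 48 hours of exposure in 96-well plates, responses at five concentrations were used to interpolate endpoints linearly. Definition used: TGI = concentration required for complete inhibition of growth.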
# How the values were obtained:
# Test in all cases: NCI-60 cell line screen, 48 h
# NCI-H226 lung = test system: NCI-H226 lung
# CCRF-CEM leukemia = test system: CCRF-CEM leukemia
# U251 CNS = test system: U251 CNS
# SK-MEL-2 melanoma = test system: SK-MEL-2 melanoma
# HS 578T breast = test system: HS 578T breast
# MDA-MB-231 breast = test system: MDA-MB-231 breast
# SN12C renal = test system: SN12C renal
# SK-MEL-28 melanoma = test system: SK-MEL-28 melanoma
# HL-60(TB) leukemia = test system: HL-60(TB) leukemia
# NCI-H460 lung = test system: NCI-H460 lung
# SK-OV-3 ovarian = test system: SK-OV-3 ovarian
# SF-295 CNS = test system: SF-295 CNS
# SK-MEL-5 melanoma = test system: SK-MEL-5 melanoma
# NCI/ADR-RES ovarian = test system: NCI/ADR-RES ovarian
# SNB-75 CNS = test system: SNB-75 CNS
# IGROV1 ovarian = test system: IGROV1 ovarian
# HCT-15 colon = test system: HCT-15 colon
# T-47D breast = test system: T-47D breast
SMILES,TGI (NCI-H226 lung) [µM],TGI (CCRF-CEM leukemia) [µM],TGI (U251 CNS) [µM],TGI (SK-MEL-2 melanoma) [µM],TGI (HS 578T breast) [µM],TGI (MDA-MB-231 breast) [µM],TGI (SN12C renal) [µM],TGI (SK-MEL-28 melanoma) [µM],TGI (HL-60(TB) leukemia) [µM],TGI (NCI-H460 lung) [µM],TGI (SK-OV-3 ovarian) [µM],TGI (SF-295 CNS) [µM],TGI (SK-MEL-5 melanoma) [µM],TGI (NCI/ADR-RES ovarian) [µM],TGI (SNB-75 CNS) [µM],TGI (IGROV1 ovarian) [µM],TGI (HCT-15 colon) [µM],TGI (T-47D breast) [µM]
O=C(CCN1CCCCC1)Nc1ccc2c(c1)C(=O)c1ccc(NC(=O)CCN3CCCCC3)cc1C2=O,29.6,11.1,9.97,9.92,26.2,3.6,18,32.8,20.8,3,26.4,10.4,10.2,25.8,8,13.2,7.63,32.1
NC(=O)c1ncn(C2C=CC(CP(=O)(O)O)C2)c1N (stereo not drawn),> 100,> 100,> 100,> 100,> 100,> 100,> 100,> 100,> 100,> 100,> 100,> 100,> 100,> 100,> 100,> 100,> 100,> 100
CC(=O)Nc1ccc(S(=O)(=O)c2nnc(NC(C)=O)s2)cc1,> 100,> 100,> 100,> 100,> 100,> 100,> 100,> 100,> 100,> 100,> 100,> 100,> 100,> 100,> 100,> 100,> 100,> 100
FC(F)(F)c1ccc2c(-c3cc[nH]c3)ccnc2c1,> 100,> 100,> 100,> 100,56.4,> 100,> 100,> 100,42.2,> 100,> 100,84.1,43.3,> 100,33.8,> 100,> 100,> 100
CCS1=C2C(=O)CC(C)(C)CC2=Nc2ccccc21 (stereo not drawn),> 100,> 100,> 100,> 100,> 100,> 100,> 100,> 100,> 100,> 100,> 100,> 100,> 100,> 100,> 100,> 100,> 100,> 100
N#Cc1ccc(C2ON=C(c3ccccc3)N2C23CC4CC(CC(C4)C2)C3)cc1 (stereo not drawn),> 10,> 10,> 10,> 10,> 10,> 10,> 10,> 10,> 10,> 10,> 10,> 10,> 10,> 10,> 10,> 10,> 10,> 10
CCCCCCCCCCC/C=C(/C(=O)CCCO[Si](C)(C)C(C)(C)C)C(=O)OC,> 100,> 100,> 100,> 100,> 100,> 100,> 100,> 100,> 100,> 100,> 100,> 100,> 100,> 100,> 100,> 100,> 100,> 100
COc1cccc(/C=C2\CCC(CN(C)C)C2=O)c1 (stereo not drawn),33.6,11.1,26.5,26.2,> 89.4,14,22.8,8.52,2.47,35,29.2,30.8,24.8,6.56,38.2,23.4,7.97,16.6
O=C1c2cc3c(cc2CC12Cc1ccccc1C2)CCC3,73.8,98.3,> 100,51.8,> 100,66.7,> 100,> 100,81.6,> 100,> 100,> 100,32.2,76.8,93.8,> 100,> 100,> 100
COc1ccccc1NC1Oc2cc3c(cc2C(c2cc(OC)c(OC)c(OC)c2)C1C)OCO3 (stereo not drawn),9.92,> 50.3,51.2,> 100,> 25.2,> 23.9,> 65.3,> 100,3.36,> 100,> 31.1,2.99,16.8,> 33.1,16.7,> 100,> 100,> 100
COc1ccc(C2(CC(C)C)CCNC2)cc1OC (stereo not drawn),> 100,> 100,> 100,> 100,> 100,> 100,> 100,> 100,> 100,> 100,> 100,> 100,> 100,> 100,86.3,> 100,> 100,> 100
Cc1ccc(S(=O)(=O)C2=Cc3ccccc3C2(O)c2ccccc2)cc1 (stereo not drawn),64.5,38.1,87.7,31.4,81.9,33.3,34.3,31.1,29.6,54.6,79.2,76.9,31.2,76.6,> 100,> 100,> 100,> 100
CCCC(=O)OCC1OC(n2cc(F)c(=O)[nH]c2=O)C(F)C1O (stereo not drawn),> 100,> 100,> 100,> 100,> 100,> 100,> 100,> 100,> 100,> 100,> 100,> 100,> 100,> 100,> 100,> 100,> 100,> 100
Cc1nc(C(N)=S)sc1C(=O)CC(=O)C(=O)Nc1ccc(Br)cc1,> 100,> 100,> 100,> 100,> 100,> 100,> 100,> 100,> 100,> 100,> 100,> 100,> 100,> 100,> 100,> 100,> 100,> 100
C/C(=N\O)c1ccc(OCc2cc(C(F)(F)F)cc(C(F)(F)F)c2)cc1,> 100,89.3,> 100,> 100,> 100,> 100,> 100,> 100,25.5,69.1,> 100,> 100,> 100,> 100,> 100,> 100,> 100,> 100
CCOC(=O)c1cc(=O)c2cccc3c2n1CCS3,> 100,> 100,> 100,> 100,> 100,> 100,> 100,> 100,> 100,> 100,> 100,> 100,> 100,> 100,> 100,> 100,> 100,> 100

# — PubChem BioAssay (NCI)
